These results are taken from patent publication US11400059B2, “Treatment of pain and/or pain related symptoms associated with dysmenorrhea” (ALYRA BIOTECH PTY LTD, priority 2017, dated 2022).

The target of one series is T1, Human TLR3 (Homo sapiens, UniProt O15455).
T1 construct: expressed in transfected cells; host or cells: HEK293
T1 sequence (O15455 24-904): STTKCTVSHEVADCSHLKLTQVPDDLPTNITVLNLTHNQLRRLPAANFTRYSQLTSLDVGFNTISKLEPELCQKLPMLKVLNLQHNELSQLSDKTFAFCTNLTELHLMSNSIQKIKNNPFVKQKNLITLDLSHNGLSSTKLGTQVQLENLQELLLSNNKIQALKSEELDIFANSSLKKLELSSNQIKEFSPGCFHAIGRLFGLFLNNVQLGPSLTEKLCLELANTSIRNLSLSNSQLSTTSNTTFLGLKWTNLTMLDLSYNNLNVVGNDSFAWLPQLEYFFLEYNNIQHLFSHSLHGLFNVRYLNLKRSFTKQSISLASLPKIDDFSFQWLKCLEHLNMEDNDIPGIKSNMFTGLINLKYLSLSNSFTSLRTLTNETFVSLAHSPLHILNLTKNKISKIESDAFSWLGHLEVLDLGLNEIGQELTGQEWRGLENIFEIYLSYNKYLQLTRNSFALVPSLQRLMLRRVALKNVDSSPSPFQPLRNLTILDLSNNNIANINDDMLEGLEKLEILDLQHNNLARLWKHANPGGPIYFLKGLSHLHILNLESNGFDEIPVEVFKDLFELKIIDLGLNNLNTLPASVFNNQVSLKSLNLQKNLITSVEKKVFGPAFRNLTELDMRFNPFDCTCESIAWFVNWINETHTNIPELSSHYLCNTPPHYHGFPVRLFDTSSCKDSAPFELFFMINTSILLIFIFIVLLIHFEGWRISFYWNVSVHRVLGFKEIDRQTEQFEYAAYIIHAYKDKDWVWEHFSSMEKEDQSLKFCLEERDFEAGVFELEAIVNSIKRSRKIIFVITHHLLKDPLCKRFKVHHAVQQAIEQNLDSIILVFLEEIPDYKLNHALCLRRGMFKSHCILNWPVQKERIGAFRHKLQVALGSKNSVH
The experiment in a line: Human TLR antagonist screening, NF-κB SEAP reporter in HEK293 cells. The format is cell-based. The conditions noted are these: antagonist mode, test article 1 μM, +Poly(I:C) 50 ng/ml, No Sample 14, Control− 1. How it is done: (§1) Toll-Like Receptor (TLR), NOD-Like Receptor (NLR) and C-Type Lectin Receptor (CLR) stimulation were tested by assessing NF-κB activation in HEK293 cells expressing a given TLR, NLR or CLR. The activity of the test articles was tested at one concentration and compared to control ligands. These steps were performed in triplicate. hTLR3: Poly(I:C) HMW at 1 μg/mL Antagonist: 50 ng/mL. In a 96-well plate (200 μL total volume) containing the appropriate cells (50,000-75,000 cells/well), 20 μL of the test article or the positive control ligand was added to the wells. For the antagonist assay, the test article was incubated with the cells, at 37° C. with 5% CO2, for 30 minutes prior to the addition of the positive control ligand to the wells. The media added to the wells was designed for the detection of NF-κB induced SEAP expression. After a 16-24 hr incubation the optical density (OD) was read at 650 nm on a Molecular Devices SpectraMax 340PC absorbance detector. Fold induction (ratio of average induced value to average non-induced value) was determined for each TLR, NOD1, NOD2, Dectin-1a, Dectin-1b.

For a further series, the target named is T2, Human TLR2 (Homo sapiens, UniProt O60603).
T2 construct: expressed in transfected cells; host or cells: HEK293
T2 sequence (O60603 21-784): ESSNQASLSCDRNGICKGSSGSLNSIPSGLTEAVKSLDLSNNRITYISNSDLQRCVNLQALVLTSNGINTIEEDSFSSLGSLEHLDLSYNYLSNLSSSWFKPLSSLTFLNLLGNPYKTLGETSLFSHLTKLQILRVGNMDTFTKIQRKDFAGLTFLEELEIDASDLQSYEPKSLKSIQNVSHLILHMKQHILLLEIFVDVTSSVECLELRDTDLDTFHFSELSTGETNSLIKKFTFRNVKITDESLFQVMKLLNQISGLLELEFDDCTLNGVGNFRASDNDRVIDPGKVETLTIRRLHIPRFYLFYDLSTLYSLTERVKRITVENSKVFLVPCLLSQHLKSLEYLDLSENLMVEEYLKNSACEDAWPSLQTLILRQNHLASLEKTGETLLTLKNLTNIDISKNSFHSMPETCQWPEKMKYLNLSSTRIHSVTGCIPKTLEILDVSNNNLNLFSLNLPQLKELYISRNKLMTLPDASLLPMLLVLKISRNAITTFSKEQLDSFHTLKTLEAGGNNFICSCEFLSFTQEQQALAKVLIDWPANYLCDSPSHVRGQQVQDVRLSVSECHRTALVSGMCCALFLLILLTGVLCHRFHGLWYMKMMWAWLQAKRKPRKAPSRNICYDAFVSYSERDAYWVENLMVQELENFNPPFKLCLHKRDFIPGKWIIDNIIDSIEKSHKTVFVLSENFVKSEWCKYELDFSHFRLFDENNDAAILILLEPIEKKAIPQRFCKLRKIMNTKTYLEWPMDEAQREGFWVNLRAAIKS
The series is described as above. The format is cell-based. The settings on record: antagonist mode, test article 1 μM, +HKLM 1 × 10^6 cells/mL, No Sample 6, Control− 1. How it is done: as §1, with “TLR2: […]” for “hTLR3: Poly(I:C) HMW at 1 μg/mL”, “1×10^6 cells/mL:” for “50 ng/mL.”

Take `CNCCC=C1c2ccccc2CCc2ccccc21` [Nortriptyline]: the “Fold Induction” value is given as “slight inhibitory effect” on Human TLR3, 12 at Human TLR3 (listed as Nor), “slight inhibitory effect” at Human TLR2 and 5 on Human TLR2 (listed as Nor).

Turning to `CN(C)CCC=C1c2ccccc2CCc2ccccc21` [Amitriptyline], the “Fold Induction” value is given as “slight inhibitory effect” on Human TLR3, 12 on Human TLR3 (listed as Ami), “slight inhibitory effect” at Human TLR2 and 5 on Human TLR2 (listed as Ami).
